Experimental data taken from patent publication US4650791A, “Certain 3-alkoxy-2-cyclic-imido-propyl-phosphate-ethyl-cyclic ammonium hydroxide inner salts which inhibit activities of platelet activating factor” (Takedo Chemical Industries, Ltd., priority 1984, dated 1987).

What was measured:
[1] = test system: PAF-induced platelet aggregation (PRP); experiment: Activity on inhibiting platelet aggregation (PRP, PAF-induced); type: cell-based; conditions: male rabbit, PAF 1×10^-8 M, 37° C.
Description: Activity on inhibiting platelet aggregation
Using an injection syringe containing 3.15% citric acid (in a ratio of 1 part per 9 parts of blood) as an anticoagulant, the blood was directly collected from a male rabbit. Then, at room temperature, the blood was centrifuged at 800 r.p.m. for 10 minutes to harvest a platelet rich plasma (PRP). The remaining blood was further centrifuged at 3,000 r.p.m. for 10 minutes to separate a platelet poor plasma (PPP) as a supernatant. The PRP was diluted with the PPP to adjust the number of platelets to about 0.5 million (5×10^5) per μl. This PRP (250 μl) was stirred at 37° C. for 2 minutes, and the test compound was added to the PRP. After stirring the mixture for 2 minutes, 1×10^-8 M of PAF was added to the mixture. The degree of platelet aggregation was determined with a platelet aggregometer (Rika Denki). The aggregation inhibitory activity of the test compound was estimated from the inhibition rate relative to the maximum transmission (maximum aggregation) of control PRP by PAF.

[2] = test system: PAF-induced platelet aggregation (washed PRP); experiment: Activity to inhibit PAF in platelet aggregation (washed PRP); type: cell-based; conditions: Oryctolagus cuniculus, male rabbit, compound 3×10^-5 M, PAF 3×10^-5 M, 37° C., read-out: inhibition rate relative to the maximum transmission (maximum aggregation) of control PRP by PAF
Description: Activity to inhibit PAF in platelet aggregation
Using an injection syringe containing a 3.15% solution of citric acid (in a ratio of 1 part per 9 parts of blood) as an anticoagulant, the blood was directly collected from a male rabbit. Then, at room temperature, the blood was centrifuged at 1,000 r.p.m. for 10 minutes to harvest a platelet rich plasm (PRP). This PRP was further centrifuged at 1,400 r.p.m. for 15 minutes to give platelet pellets. The pellets were suspended in Ca^++ -free Tyrode solution (containing 0.25% of gelatin) to give a washed PRP. This washed PRP (250 μl) was stirred at 37° C. for 2 minutes, then 25 μl of a 0.2 to 0.5 mM Ca^++ solution was added, and the mixture was further stirred for 30 seconds. Then, the compound obtained in Example 5 was added to a concentration of 3×10^-5 M. After stirring the mixture for 2 minutes, 3×10^-5 M of PAF was added. The degree of platelet aggregation was determined with a platelet aggregometer (Rika Denki). The activity of the test drug was estimated from the inhibition rate relative to the maximum transmission (maximum aggregation) of control PRP by PAF. The inhibition rate thus found was 70%.

Row | Compound | Inhibition rate (%) ([1]; test compound 3 × 10^-5 (M)) | Inhibition rate (%) ([1]; test compound 3 × 10^-6 (M)) | inhibition at 30 µM [2] [%]
1 | CCCCCCCCCCCCCCCCCCOCC(COP(=O)([O-])OCC[n+]1ccsc1)N1C(=O)CCC1=O (centres unmarked) [Example 12, 3-Octadecyloxy-2-succinimidopropyl 2-thiazolioethyl phosphate] | 100 | 32 | –
2 | CCCCCCCCCCCCCCCCCCOCC(COP(=O)([O-])OCC[n+]1ccsc1)N1C(=O)c2ccccc2C1=O (centres unmarked) [Example 6, 3-Octadecyloxy-2-phthalimidopropyl 2-thiazolioethyl phosphate] | 100 | 96 | –
3 | CCCCCCCCCCCCCCCCCCOCC(COP(=O)([O-])OCC[n+]1ccccc1)N1C(=O)c2ccccc2C1=O (centres unmarked) [Example 5, 3-Octadecyloxy-2-phthalimidopropyl 2-pyridinioethyl phosphate] | – | – | 70
